In article PMC9330593, “The Structural Flexibility of PR-10 Food Allergens” (International Journal of Molecular Sciences, 2022):

Target: T1, Ara h 8.0101 (Arachis hypogaea, UniProt Q6VT83)
T1 construct: recombinant, 15N-labelled; N-terminal glycine (initiator Met apparently absent)
T1 sequence (Q6VT83 2-157): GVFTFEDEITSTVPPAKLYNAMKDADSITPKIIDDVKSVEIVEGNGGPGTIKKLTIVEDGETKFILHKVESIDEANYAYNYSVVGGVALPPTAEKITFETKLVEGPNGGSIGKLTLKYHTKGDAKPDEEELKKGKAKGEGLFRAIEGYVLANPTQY
Experiment: 1H-15N HSQC NMR titration
Assay type: binding

Kd: 760 ± 370 µM
SMILES: Oc1cc(O)c2c(c1)O[C@H](c1ccc(O)c(O)c1)[C@H](O)C2 [(-)-epicatechin]
